Experimental data as given in ChEMBL document CHEMBL4251578, “Design, synthesis and biological evaluation of novel 2-aminobenzamides containing dithiocarbamate moiety as histone deacetylase inhibitors and potent antitumor agents” (Eur J Med Chem, 2018).

How the values were obtained:
MGC-803 [1] = test: Antiproliferative activity against human MGC803 cells at 2 uM after 72 hrs by CCK-8 assay relative to control; type: functional; conditions: MGC-803, 72 h
MGC-803 [2] = test: Antiproliferative activity against human MGC803 cells at 8 uM after 72 hrs by CCK-8 assay relative to control; type: functional; conditions: MGC-803, 72 h
A-375 [3] = test: Antiproliferative activity against human A375 cells at 8 uM after 72 hrs by CCK-8 assay relative to control; type: functional; conditions: A-375, 72 h
A-375 [4] = test: Antiproliferative activity against human A375 cells at 2 uM after 72 hrs by CCK-8 assay relative to control; type: functional; conditions: A-375, 72 h
HeLa [5] = test: Antiproliferative activity against human HeLa cells at 2 uM after 72 hrs by CCK-8 assay relative to control; type: functional
HeLa [6] = test: Antiproliferative activity against human HeLa cells at 8 uM after 72 hrs by CCK-8 assay relative to control; type: functional
NCI-H1299 = test: Antiproliferative activity against human NCI-H1299 cells after 72 hrs by CCK-8 assay; type: functional, cell-based; conditions: NCI-H1299, 72 h
MGC-803 [7] = test: Antiproliferative activity against human MGC803 cells after 72 hrs by CCK-8 assay; type: functional, cell-based; conditions: MGC-803, 72 h
A-375 [8] = test: Antiproliferative activity against human A375 cells after 72 hrs by CCK-8 assay; type: functional, cell-based; conditions: A-375, 72 h
HCT-116 = test: Antiproliferative activity against human HCT116 cells after 72 hrs by CCK-8 assay; type: functional, cell-based; conditions: HCT-116, 72 h
SMMC-7721 [9] = test: Antiproliferative activity against human SMMC7721 cells after 72 hrs by CCK-8 assay; type: functional, cell-based; conditions: SMMC-7721, 72 h
HeLa [10] = test: Antiproliferative activity against human HeLa cells after 72 hrs by CCK-8 assay; type: functional, cell-based
SMMC-7721 [11] = test: Cell cycle arrest in human SMMC7721 cells assessed as accumulation of cells at G0/G1 phase at 0.125 umol/L after 72 hrs by propidium iodide staining-based flow cytometric analysis (reference value: 80.65%); type: functional

Row | SMILES | inhibition at 2 µM (MGC-803 [1]) [%] | inhibition at 8 µM (MGC-803 [2]) [%] | inhibition at 8 µM (A-375 [3]) [%] | inhibition at 2 µM (A-375 [4]) [%] | inhibition at 2 µM (HeLa [5]) [%] | inhibition at 8 µM (HeLa [6]) [%] | IC50 (NCI-H1299) [nM] | IC50 (MGC-803 [7]) [nM] | IC50 (A-375 [8]) [nM] | IC50 (HCT-116) [nM] | IC50 (SMMC-7721 [9]) [nM] | IC50 (HeLa [10]) [nM] | Activity (SMMC-7721 [11])
1 | Nc1ccccc1NC(=O)c1ccc(CSC(=S)N2CCN(Cc3cccnc3)CC2)cc1 | 37.7 | 64.6 | 89.2 | 31.5 | 69.7 | 78 |  |  |  |  |  |  | 
2 | Nc1ccccc1NC(=O)c1ccc(CSC(=S)N2CCN(c3ccc(F)cc3)CC2)cc1 | 18.8 | 48.7 | 76.3 | 20.9 | 60.8 | 64.5 | 980 | 17200 | 9400 | 2730 | > 32000 |  | 
3 | Nc1ccccc1NC(=O)c1ccc(CSC(=S)N2CCCC2)cc1 | 27 | 83.4 | 89.5 | 30.2 | 51.3 | 77.8 |  |  |  |  |  |  | 
4 | N#Cc1ccc(N2CCN(C(=S)SCc3ccc(C(=O)Nc4ccccc4N)cc3)CC2)cc1 | 34.5 | 37.6 | 62.9 | 41.4 | 71.6 | 70.6 |  |  |  |  |  |  | 
5 | CC1CCCCN1C(=S)SCc1ccc(C(=O)Nc2ccccc2N)cc1 (stereo not given) | 64.4 | 86.9 | 85.2 | 42.5 | 45.5 | 76.3 | 1300 | 1610 | 2610 | 1320 | 2950 | 2300 | Dose-dependent effect
6 | Nc1ccccc1NC(=O)c1ccc(CSC(=S)N2CCN(c3ccc(Cl)cc3)CC2)cc1 | 15 | 17.2 | 29 | 32.2 | 51.2 | 44.8 |  |  |  |  |  |  | 
7 | Nc1ccccc1NC(=O)c1ccc(CSC(=S)N(Cc2ccccc2)Cc2ccccc2)cc1 | 11 | 30.7 | 32.5 | 10.9 | 1 | 18.9 |  |  |  |  |  |  | 
8 | Nc1ccccc1NC(=O)c1ccc(CSC(=S)N2CCc3cc(Cl)ccc32)cc1 | 57.7 | 82.2 | 82.3 | 31.9 | 40.1 | 65.1 | 3280 | 1890 | 5280 | 3210 | 1880 |  | 
9 | CN(Cc1cccnc1)C(=S)SCc1ccc(C(=O)Nc2ccccc2N)cc1 | 45.9 | 85.5 | 83.8 | 39.4 | 16.4 | 68.7 |  |  |  |  |  |  | 
10 | COC(=O)c1ccc2c(c1)CCN2C(=S)SCc1ccc(C(=O)Nc2ccccc2N)cc1 | 37.8 | 73.1 | 79.2 | 37.5 | 45.3 | 60.1 | 2020 | 3280 | 5880 | 13200 | > 32000 | 3580 | 
11 | Nc1ccccc1NC(=O)c1ccc(CSC(=S)N2CCN(C3CCCCC3)CC2)cc1 | 16.9 | 75.3 | 89.9 | 31.7 | 30.6 | 76.1 |  |  |  |  |  |  | 
12 | CN(C(=S)SCc1ccc(C(=O)Nc2ccccc2N)cc1)c1cccnc1 | 46.1 | 82.5 | 87.7 | 26.5 | 16 | 70.5 |  |  |  |  |  |  | 
13 | Nc1ccccc1NC(=O)c1ccc(CSC(=S)N2CCN(c3ccccc3)CC2)cc1 | 42.3 | 87.4 | 88.6 | 27.5 | 62.2 | 73.1 | 610 | 2140 | 3670 | 2330 | 2860 | 840 | 
14 | Nc1ccccc1NC(=O)c1ccc(CSC(=S)N2CCc3ccccc32)cc1 | 44 | 87 | 85.4 | 25.7 | 38 | 67 | 2900 | 2300 | 4050 | 2700 | 3040 | 3450 | 
15 | Nc1ccccc1NC(=O)c1ccc(CSC(=S)N2CCN(Cc3ccccn3)CC2)cc1 | 23.4 | 65.2 | 82.4 | 20.7 | 14.2 | 61.4 |  |  |  |  |  |  | 
16 | CN(Cc1ccncc1)C(=S)SCc1ccc(C(=O)Nc2ccccc2N)cc1 | 38.1 | 83.2 | 86.1 | 31.4 | 29.5 | 72.7 |  |  |  |  |  |  | 

Row | SMILES | inhibition at 2 µM (MGC-803 [1]) [%] | inhibition at 8 µM (MGC-803 [2]) [%] | inhibition at 8 µM (A-375 [3]) [%] | inhibition at 2 µM (A-375 [4]) [%] | inhibition at 2 µM (HeLa [5]) [%] | inhibition at 8 µM (HeLa [6]) [%] | IC50 (NCI-H1299) [nM] | IC50 (MGC-803 [7]) [nM] | IC50 (A-375 [8]) [nM] | IC50 (HCT-116) [nM] | IC50 (SMMC-7721 [9]) [nM] | IC50 (HeLa [10]) [nM] | Activity (SMMC-7721 [11])
17 | CC1CCN(C(=S)SCc2ccc(C(=O)Nc3ccccc3N)cc2)CC1 | 28.1 | 81.9 | 87.4 | 32.7 | 46.8 | 72.5 |  |  |  |  |  |  | 
18 | Nc1ccccc1NC(=O)c1ccc(CSC(=S)N2CCN(c3cnccn3)CC2)cc1 | 27.1 | 80.5 | 85.8 | 29.1 | 70.4 | 76.9 |  |  |  |  |  |  | 
19 | Nc1ccccc1NC(=O)c1ccc(CSC(=S)N2CCN(Cc3ccccc3)CC2)cc1 | 18.1 | 19.7 | 29.3 | 10.6 | 20.6 | 31.3 |  |  |  |  |  |  | 
20 | CN1CCN(C(=S)SCc2ccc(C(=O)Nc3ccccc3N)cc2)CC1 | 29.6 | 84.4 | 91.6 | 36.6 | 52.6 | 75.7 |  |  |  |  |  |  | 
21 | Cc1ccc(N2CCN(C(=S)SCc3ccc(C(=O)Nc4ccccc4N)cc3)CC2)cc1 | 33.4 | 19.8 | 26.4 | 25.8 | 25.3 | 24 |  |  |  |  |  |  | 
22 | Nc1ccccc1NC(=O)c1ccc(CSC(=S)N2CCN(c3ncccn3)CC2)cc1 | 28.4 | 64.8 | 67.9 | 24 | 52.2 | 73.9 |  |  |  |  |  |  | 
23 | Nc1ccccc1NC(=O)c1ccc(CSC(=S)N2CCc3ccc([N+](=O)[O-])cc32)cc1 | 30.6 | 39.6 | 42 | 22.1 | 45.7 | 62.1 |  |  |  |  |  |  | 
24 | CC(=O)Nc1ccc(C(=O)Nc2ccccc2N)cc1 [TACEDINALINE] | 9.5 | 22.4 | 33.5 | 13.4 | 7.3 | 24.3 | 33800 |  | 11300 |  |  | 18000 | 
25 | Nc1ccccc1NC(=O)c1ccc(CSC(=S)N2CCc3cc([N+](=O)[O-])ccc32)cc1 | 26.8 | 33.2 | 29.5 | 16.9 | 32.6 | 43.6 |  |  |  |  |  |  | 
26 | COc1ccc(N2CCN(C(=S)SCc3ccc(C(=O)Nc4ccccc4N)cc3)CC2)cc1 | 25.3 | 22.9 | 35.9 | 28.1 | 39.4 | 52.3 |  |  |  |  |  |  | 
27 | Nc1ccccc1NC(=O)c1ccc(CSC(=S)N2CCN(c3cccnc3)CC2)cc1 | 27.6 | 76.9 | 88.8 | 40.5 | 66.2 | 72.5 |  |  |  |  |  |  | 
28 | Nc1ccccc1NC(=O)c1ccc(CSC(=S)N2CCN(Cc3ccncc3)CC2)cc1 | 18.4 | 79.3 | 89.5 | 33.1 | 59.5 | 72.9 |  |  |  |  |  |  | 
29 | Nc1ccccc1NC(=O)c1ccc(CSC(=S)N2CCN(c3ccccc3F)CC2)cc1 | 33.7 | 86.4 | 79.5 | 18.7 | 17.5 | 59.2 |  |  |  |  |  |  | 
30 | Nc1ccccc1NC(=O)c1ccc(CSC(=S)N2CCCc3ccccc32)cc1 | 38.5 | 87.5 | 81.5 | 26.5 | 26.1 | 35.7 |  |  |  |  |  |  | 
31 | Nc1ccccc1NC(=O)c1ccc(CSC(=S)N2CCN(C(c3ccccc3)c3ccccc3)CC2)cc1 | 9.8 | 9.9 | 8.4 | 8.7 | 8 | 13.8 |  |  |  |  |  |  | 
32 | Nc1ccccc1NC(=O)c1ccc(CSC(=S)N2CCN(CCc3ccccc3)CC2)cc1 | 24.8 | 53.8 | 76.6 | 26.1 | 21.9 | 37 |  |  |  |  |  |  | 
